Reference: patent publication US20260028364A1, “CATIONIC CHROMENONES AND THEIR USE IN ONCOLOGY” (FLORATEK PHARMA S.A., priority 2022, published 2026)

Tests used:
[1] = system: NFKB; test: SelectScreen CellSensor pathway inhibition, NFKB; format: cell-based; details: NFKB-bla Jurkat, stimulus TNF-alpha
Procedure: Inhibition of various cellular pathways known to be involved in malignancy was tested using the SelectScreen Cell-based Pathway Profiling GeneBLAzer™ cell signaling pathway specific CellSensor™ cell lines ((Thermo Fisher). The assay is based on a beta-lactamase reporter activity which is modulated and can be measured quantitatively and selectively with the LiveBLAzer™-FRET B/G Loading Substrate. SelectScreen Cell-Based Pathway Profiling Service uses XLfit from IDBS. The dose response curve is curve fit to model number 205 (sigmoidal dose-response model). Custom logic was built by Thermo Fisher for the data analysis tool to address the different compound characteristics that can be observed with functional assays.
NFKB—NFKB-bla Jurkat—Inhibitor Screen, Activated by TNF-Alpha
NFKB-bla Jurkat cells are thawed and resuspended in Assay Media (DMEM, 10% dialyzed FBS, 25 mM HEPES pH 7.3, 0.1 mM NEAA, 100 U/mL/100 μg/mL Pen/Strep) to a concentration of 625,000 cells/mL. […] 4 μL of 10×control activator TNF-alpha at the pre-determined EC80 concentration is added to wells containing the control inhibitor or compounds.
The plate is incubated for 5 hours at 37° C./5% CO2 in a humidified incubator. […] The plate is read on a fluorescence plate reader.

[2] = system: MCF-7; test: CellTiter-Glo cell viability, MCF-7; format: cell-based; details: MCF-7 cells, 72 h with compound
Procedure: (§1) Antitumor activity against a panel of cancer cell lines Antitumor activity of the compounds was assessed by using the CellTiter-Glow® Luminescent Cell Viability assay (Promega #G7572) according to the manufacturer's instructions. The compounds were tested at 5 or 6 concentrations in 1:2 dilution increments (highest concentration 10 µM) in triplicate well conditions.
(§2) Tumor cells were grown at 37° C. in a humidified atmosphere with 5% CO2 in RPMI 1640 or DMEM medium, supplemented with 10% (v/v) fetal calf serum and 50 μg/ml gentamicin for up to 20 passages, and were passaged once or twice weekly. Cells were harvested using TrypLE or PBS buffer containing 1 mM EDTA, and the percentage of viable cells is determined using a cell counter.
(§3) Cells were harvested from exponential phase cultures, counted and plated in 96 well flat-bottom microtiter plates at a cell density depending on the cell line's growth rate (4,000-20,000 cells/well depending on the cell line's growth rate) in RPMI 1640 or DMEM medium supplemented with 10% (v/v) fetal calf serum and 50 μg/ml gentamicin (140 μl/well). Cultures were incubated at 37° C. and 5% CO2 in a humidified atmosphere. After 24 h, 10 μl of test compounds or control medium are added, and left on the cells for another 72 h. Compounds were serially diluted in DMSO, transferred in cell culture medium, and added to the assay plates. The DMSO concentration was kept constant at <0.2% v/v across the assay plate. Viability of cells was quantified by the CellTiter-Glow® Luminescent Cell Viability assay (Promega #G7572). Luminescence was measured with the microplate luminometer (En Vision Perkin Elmer).
(§4) Sigmoidal concentration-response curves were fitted to the data points (test-versus-control, T/C values) obtained for each tumor model using Graph Pad prism 5.02 software. IC50 values are reported as absolute IC50 values, being the concentration of test compound at the intersection of the concentration-response curves with T/C=50%.

[3] = system: NCI-H1299; test: CellTiter-Glo cell viability, NCI-H1299; format: cell-based; details: H1299 cells, 72 h with compound
Procedure: as §1, §2, §3, §4

[4] = system: HCC-15; test: CellTiter-Glo cell viability, HCC-15; format: cell-based; details: HCC-15 cells, 72 h with compound
Procedure: as §1, §2, §3, §4

[5] = system: MIA-PaCa-2; test: CellTiter-Glo cell viability, MIA-PaCa-2; format: cell-based; details: MIA-PaCa-2 cells, 72 h with compound
Procedure: as §1, §2, §3, §4

[6] = system: A-673; test: CellTiter-Glo cell viability, A-673; format: cell-based; details: A-673 cells, 72 h with compound
Procedure: as §1, §2, §3, §4

[7] = system: SK-Mel-5; test: CellTiter-Glo cell viability, SK-Mel-5; format: cell-based; details: SK-Mel-5 cells, 72 h with compound
Procedure: as §1, §2, §3, §4

[8] = system: U87MG; test: CellTiter-Glo cell viability, U87MG; format: cell-based; details: U87MG cells, 72 h with compound
Procedure: as §1, §2, §3, §4

[9] = system: A375; test: CellTiter-Glo cell viability, A375; format: cell-based; details: A375 cells, 72 h with compound
Procedure: as §1, §2, §3, §4

[10] = system: SK-N-SH; test: CellTiter-Glo cell viability, SK-N-SH; format: cell-based; details: SK-N-SH cells, 72 h with compound
Procedure: as §1, §2, §3, §4

[11] = system: H69; test: CellTiter-Glo cell viability, H69; format: cell-based; details: H69 cells, 72 h with compound
Procedure: as §1, §2, §3, §4

[12] = system: BxPC-3; test: CellTiter-Glo cell viability, BxPC-3; format: cell-based; details: BxPC-3 cells, 72 h with compound
Procedure: as §1, §2, §3, §4

[13] = system: 22Rv1; test: CellTiter-Glo cell viability, 22Rv1; format: cell-based; details: 22Rv1 cells, 72 h with compound
Procedure: as §1, §2, §3, §4

[14] = system: A2058; test: CellTiter-Glo cell viability, A2058; format: cell-based; details: A2058 cells, 72 h with compound
Procedure: as §1, §2, §3, §4

[15] = system: HepG2; test: CellTiter-Glo cell viability, HepG2; format: cell-based; details: HepG2 cells, 72 h with compound
Procedure: as §1, §2, §3, §4

[16] = system: A2058 melanoma tumor cells; test: In vivo tumour inhibition, A2058 melanoma xenograft; design: species or system Balb-c/nude mouse; details: for T/C / TGI: Example 5, 12 mg/kg, day 20 after treatment start; for activity in inhibiting A2058 melanoma cell line in vivo: nude mouse xenograft model of melanoma
Procedure: The A2058 tumor cells were maintained in vitro in DMEM medium supplemented with 10% fetal bovine serum and 1% Anti-Anti at 37° C. in an atmosphere of 5% CO2 in air. The tumor cells were routinely subcultured twice weekly.
Each Balb-c/nude mouse was inoculated subcutaneously at the right flank with A2058 melanoma tumor cells (5×10^6+Matrigel) in 0.2 ml of PBS for tumor development. 10 animals per group were randomized when the average tumor volume reached 74 mm^3. Test compounds were prepared as DMSO stocks and diluted in the injection vehicle before administration. The treatment was administered every other day (QOD) as a peritumoral injection. Vehicle composition was 4% DMSO, 5% ethanol, 20% PEG200, 71% saline. Dosing volume for all groups: 5 mL/kg.
Tumor volume was measured twice weekly in two dimensions using a caliper, and the volume was expressed in mm^3 using the formula: V=0.5a×b^2 where a and b are the long and short diameters of the tumor, respectively. The tumor size was then used for calculations of T/C value: The T/C value (in percent) is an indication of antitumor effectiveness; T and Care the mean volumes of the treated and control groups, respectively, on a given day.
One-way ANOVA was performed to compare tumor volume among treated groups and vehicle group, all data were analyzed using GraphPad Prism 5.0. p<0.05 was considered to be statistically significant.

[17] = system: Raji; test: CellTiter-Glo cell viability, Raji; format: cell-based; details: Homo sapiens; Raji cells, 72 h with compound
Procedure: as §1, §2
as §3, with “After 24 h, 10 μl of test compounds or control medium are added, and left on the cells for another 72 h. Compounds were serially diluted in DMSO, transferred in cell culture medium, and added to the assay plates. The DMSO concentration was kept constant at <0.2% v/v across the assay plate.” left out, “Elmer). […]” for “Elmer).”

Row | Structure (SMILES) | IC50 [2] | IC50 [3] | IC50 [4] | IC50 [5] | IC50 [6] | IC50 [7] | IC50 [8] | IC50 [9] | IC50 [10] | IC50 [11] | IC50 [12] | IC50 [13] | IC50 [14] | IC50 [15] | T/C [16] | TGI [16] | activity in inhibiting A2058 melanoma cell line in vivo [16] | further results
1 | CC1=C(CO)C(=O)O[C@@H]([C@@H](C)[C@H]2CC[C@H]3[C@@H]4C[C@H]5O[C@]56[C@@H](O)C=CC(=O)[C@]6(C)[C@H]4CC[C@]23C)C1 [Withaferin A, reference compound] |  |  |  |  |  |  |  |  |  |  |  |  |  |  |  |  |  | IC50 [1]: 240 nM
2 | COc1ccc2c(=O)c(-c3ccc(CCCCCCCCCC[P+](c4ccccc4)(c4ccccc4)c4ccccc4)cc3)coc2c1OC.[Cl-] [SND479] | 170 nM | 200 nM | 190 nM | 110 nM | 440 nM | 110 nM | 240 nM | 210 nM | 210 nM | 230 nM | 220 nM | 170 nM | 190 nM | 440 nM | 33.5% | 70.0% | significant activity | 
3 | COc1ccc2c(=O)c(-c3ccc(CCCCCCCC[P+](c4ccccc4)(c4ccccc4)c4ccccc4)cc3)coc2c1OC [SND478] | 220 nM | 260 nM | 220 nM | 190 nM | 650 nM | 150 nM | 390 nM | 240 nM | 490 nM | 210 nM | 250 nM | 170 nM | 270 nM | 680 nM |  |  |  | 
4 | COc1ccc2c(=O)c(-c3ccc(CCCCCC[P+](c4ccccc4)(c4ccccc4)c4ccccc4)cc3)coc2c1OC.[Cl-] [SND477] | 210 nM | 310 nM | 240 nM | 200 nM | 600 nM | 160 nM | 320 nM | 210 nM | 550 nM | 230 nM | 260 nM | 110 nM | 240 nM | 660 nM | 35.6% | 68.7% | significant activity | 
5 | COc1c(O)ccc2c(=O)c(-c3ccc(CCCC[P+](c4ccccc4)(c4ccccc4)c4ccccc4)cc3)coc12 [SND530, (4-(4-(7-Hydroxy-8-methoxy-4-oxo-4H-chromen-3-yl)phenyl)butyl)triphenylphosphonium bromide] |  |  |  |  |  |  |  |  |  |  |  |  |  |  |  |  |  | IC50 ([2]; Homo sapiens, MCF7): 1000 nM; IC50 ([3]; Homo sapiens, NCI-H1299): 1400 nM; IC50 ([4]; HCC15): 3700 nM; IC50 [17]: 140 nM; IC50 ([5]; Homo sapiens): 1200 nM; IC50 ([6]; Homo sapiens, A673): 500 nM; IC50 ([7]; Homo sapiens): 1100 nM; IC50 ([8]; Homo sapiens, U-87 MG): 1900 nM; IC50 ([9]; Homo sapiens, A-375): 1500 nM
